For 23 compounds, IC50 results are on record in publication PMC2248166, “Quantitative peptide binding motifs for 19 human and mouse MHC class I molecules derived using positional scanning combinatorial peptide libraries” (Immunome Research, 2008).

pIC50: −log10 of the molar value. Where a SMILES comes first, the peptide text is derived from it.

Targets include HLA A*3201 (Homo sapiens, UniProt P04439, A270S/D101S/D185E/E176V/E277Q/F133L/G103R/G107R/G231S/H175R/I121M/I218V/I322F/K168Q/L105A/L300P/L318F/M331R/P208A/P217A/Q94H/R106L/R138Q/S129P/T104I/T323A/T345S/V100E/V321M/V358M); HLA A*3001 (Homo sapiens, UniProt P04439, D140H/D185E/E176W/F33S/G80R/H175R/K168Q/R138E/R41S); HLA B*1501 (Homo sapiens, UniProt P01889, A329T/A93T/A95T/C349S/D201E/D98Y/E187L/E204Q/E69M/E70A/K202T/N87E/Q94N/R155S/R180W/S121R/S35A/S48A/V306I/V36M/Y140S/Y91S); HLA B*1503 (Homo sapiens, UniProt P01889, A329T/A93T/A95T/C349S/D201E/D98Y/E187L/E204Q/K202T/N87E/Q94N/R155S/R180L/S121R/S35A/V306I/V36M/Y140S/Y91S).

Assay in all cases: biochemical
What all share (type): binding

Chain of HLA A*3001 (P04439 25-365 limits assumed, stated change not applied): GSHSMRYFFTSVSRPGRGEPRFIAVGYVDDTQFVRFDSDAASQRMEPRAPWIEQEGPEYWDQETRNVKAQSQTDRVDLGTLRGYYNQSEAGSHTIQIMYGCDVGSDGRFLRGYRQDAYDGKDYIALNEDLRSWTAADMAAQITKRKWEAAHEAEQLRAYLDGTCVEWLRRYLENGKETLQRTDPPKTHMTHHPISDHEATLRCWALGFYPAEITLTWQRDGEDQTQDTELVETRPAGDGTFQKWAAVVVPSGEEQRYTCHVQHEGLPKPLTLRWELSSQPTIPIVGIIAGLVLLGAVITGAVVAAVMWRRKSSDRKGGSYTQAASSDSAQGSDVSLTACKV

What is called pIC50 is the negative decadic logarithm of the IC50, by convention in mol/L. A lower pIC50 goes with a high IC50. `CC(C)[C@H](NC(=O)[C@H](Cc1ccccc1)NC(=O)[C@@H](NC(=O)[C@H](Cc1c[nH]cn1)NC(=O)[C@H](CCC(=O)O)NC(=O)[C@H](CCCNC(=N)N)NC(=O)[C@@H](NC(=O)[C@@H](N)CCCCN)C(C)C)[C@@H](C)O)C(=O)N[C@@H](CCCCN)C(=O)O` [3102.0071] (H-KVREHTFVK-OH): the pIC50 is 6.83 against HLA A*3201 and 8.68 at HLA A*3001.

For the compound `CC[C@H](C)[C@H](N)C(=O)N[C@H](C(=O)N[C@@H](Cc1ccc(O)cc1)C(=O)N[C@@H](CO)C(=O)N[C@@H](CC(C)C)C(=O)N[C@H](C(=O)N[C@H](C(=O)N[C@H](C(=O)N[C@H](C(=O)O)[C@@H](C)CC)[C@@H](C)O)[C@@H](C)O)C(C)C)C(C)C` [3102.0292] (H-IVYSLVTTI-OH), the pIC50 is 8.44 at HLA A*3201 and 7.80 at HLA A*3001.

For the compound `CC[C@H](C)[C@H](NC(=O)[C@@H](NC(=O)[C@@H](N)CCCCN)[C@@H](C)O)C(=O)N[C@@H](Cc1ccc(O)cc1)C(=O)N[C@@H](C)C(=O)N[C@H](C(=O)N[C@@H](CC(=O)O)C(=O)N[C@@H](CO)C(=O)N[C@@H](Cc1ccccc1)C(=O)O)C(C)C` [3102.0340] (H-KTIYAVDSF-OH), the negative-log IC50 (pIC50) was 8.17 on HLA A*3201 and 8.40 on HLA B*1501.

As for `CC[C@H](C)[C@H](NC(=O)[C@@H](NC(=O)[C@@H](N)CC(C)C)[C@@H](C)O)C(=O)N[C@@H](C)C(=O)N[C@@H](CS)C(=O)N[C@@H](CCCNC(=N)N)C(=O)N[C@H](C(=O)N[C@@H](CO)C(=O)N[C@@H](CC(C)C)C(=O)O)C(C)C` [3102.0376] (H-LTIACRVSL-OH), the pIC50 was 7.02 on HLA A*3201 and 7.12 on HLA B*1501.

Turning to `CC[C@H](C)[C@H](N)C(=O)N[C@H](C(=O)N[C@H](C(=O)N1CCC[C@H]1C(=O)N[C@@H](CC(C)C)C(=O)N[C@@H](CO)C(=O)N[C@H](C(=O)N[C@@H](CO)C(=O)N[C@H](C(=O)O)[C@@H](C)CC)C(C)C)[C@@H](C)CC)[C@@H](C)CC` [3102.0502] (H-IIIPLSVSI-OH), the pIC50 is 7.15 against HLA A*3201 and 6.52 against HLA B*1501.

For the compound `CC[C@H](C)[C@H](N)C(=O)N[C@H](C(=O)N[C@@H](C)C(=O)N[C@@H](Cc1c[nH]cn1)C(=O)N[C@@H](CC(C)C)C(=O)N[C@H](C(=O)N[C@@H](CC(N)=O)C(=O)N[C@@H](CO)C(=O)N[C@@H](CC(C)C)C(=O)O)C(C)C)[C@@H](C)O` [3102.0503] (H-ITAHLVNSL-OH), the values for the negative logarithm of the IC50 (pIC50) at HLA A*3201 and on HLA B*1501 were 6.74 and 8.19, respectively.

`CC[C@H](C)[C@H](NC(=O)[C@H](CC(N)=O)NC(=O)[C@H](CCSC)NC(=O)[C@@H](NC(=O)[C@@H](N)CCSC)[C@@H](C)O)C(=O)N[C@H](C(=O)N[C@@H](CC(N)=O)C(=O)N[C@@H](Cc1ccccc1)C(=O)N[C@@H](Cc1ccccc1)C(=O)O)C(C)C` [3102.0518] (H-MTMNIVNFF-OH) showed a pIC50 against HLA A*3201 of 8.72.

Turning to `CC(C)[C@H](NC(=O)[C@H](Cc1ccc(O)cc1)NC(=O)[C@@H](NC(=O)[C@@H](N)CCCNC(=N)N)C(C)C)C(=O)NCC(=O)N[C@@H](CC(N)=O)C(=O)N[C@H](C(=O)N[C@@H](C)C(=O)N[C@@H](Cc1c[nH]c2ccccc12)C(=O)O)C(C)C` [3102.0520] (H-RVYVGNVAW-OH), at HLA A*3201, the pIC50 was 8.96.

As to `CC[C@H](C)[C@H](NC(=O)[C@H](CCCCN)NC(=O)[C@H](CC(C)C)NC(=O)[C@@H](NC(=O)[C@H](Cc1ccc(O)cc1)NC(=O)[C@H](CC(N)=O)NC(=O)[C@H](CC(N)=O)NC(=O)[C@H](CC(C)C)NC(=O)[C@@H](N)CC(C)C)[C@@H](C)O)C(=O)O` [3102.0521] (H-LLNNYTLKI-OH), the negative logarithm of the IC50 (pIC50) against HLA A*3201 was 7.60.

Consider `CC(C)C[C@H](NC(=O)[C@@H](N)CCCNC(=N)N)C(=O)N[C@@H](Cc1ccccc1)C(=O)N[C@@H](Cc1ccc(O)cc1)C(=O)N[C@H](C(=O)N[C@@H](Cc1ccccc1)C(=O)N[C@@H](Cc1ccccc1)C(=O)N[C@@H](CO)C(=O)N[C@@H](Cc1ccc(O)cc1)C(=O)O)[C@@H](C)O` [3102.0803] (H-RLFYTFFSY-OH), for which the values for the pIC50 on HLA A*3201 and at HLA B*1501 were 9.72 and 9.43, respectively.

`CC[C@H](C)[C@H](NC(=O)[C@H](CC(C)C)NC(=O)[C@@H](N)CCCNC(=N)N)C(=O)N[C@H](C(=O)N[C@@H](CC(C)C)C(=O)N[C@@H](Cc1ccccc1)C(=O)N[C@@H](CCC(=O)O)C(=O)N[C@H](C(=O)N[C@@H](Cc1ccccc1)C(=O)O)C(C)C)C(C)C` [3102.0817] (H-RLIVLFEVF-OH): the pIC50 on HLA A*3201 was 7.89; against HLA B*1501 it was 8.17.

Consider `CC[C@H](C)[C@H](NC(=O)[C@@H](N)CCSC)C(=O)N[C@@H](Cc1ccccc1)C(=O)N[C@@H](Cc1ccccc1)C(=O)N[C@@H](CC(N)=O)C(=O)N1CCC[C@H]1C(=O)N[C@H](C(=O)N[C@@H](CO)C(=O)N[C@@H](Cc1ccccc1)C(=O)O)C(C)C` [3102.0841] (H-MIFFNPVSF-OH), for which the pIC50 against HLA A*3201 was 9.34; against HLA B*1501, 8.03.

Take `CC[C@H](C)[C@H](NC(=O)[C@H](CCCCN)NC(=O)[C@H](Cc1ccc(O)cc1)NC(=O)[C@H](Cc1ccccc1)NC(=O)[C@H](CCSC)NC(=O)[C@H](Cc1ccc(O)cc1)NC(=O)[C@H](CCC(N)=O)NC(=O)[C@@H](N)CCCNC(=N)N)C(=O)N[C@@H](Cc1ccccc1)C(=O)O` [3102.1055] (H-RQYMFYKIF-OH): the results for the pIC50 against HLA B*1503 and at HLA A*3201 were 10.15 and 7.72, respectively.

With `CC[C@H](C)[C@H](NC(=O)[C@H](C)NC(=O)[C@H](Cc1ccccc1)NC(=O)[C@H](CCC(N)=O)NC(=O)[C@@H](N)Cc1c[nH]c2ccccc12)C(=O)N[C@@H](Cc1c[nH]cn1)C(=O)N[C@@H](Cc1ccc(O)cc1)C(=O)N[C@@H](CO)C(=O)N[C@@H](Cc1ccccc1)C(=O)O` [3102.1096] (H-WQFAIHYSF-OH), the values for the pIC50 against HLA B*1503 and on HLA A*3201 were 8.35 and 8.55, respectively.

Regarding `CC[C@H](C)[C@H](N)C(=O)N[C@@H](CC(C)C)C(=O)N[C@@H](Cc1ccccc1)C(=O)N[C@@H](Cc1ccc(O)cc1)C(=O)N[C@@H](Cc1ccccc1)C(=O)N[C@@H](C)C(=O)N[C@@H](CC(N)=O)C(=O)NCC(=O)N[C@H](C(=O)O)[C@@H](C)CC` [3102.1147] (H-ILFYFANGI-OH), the pIC50 against HLA A*3201 is 7.03.

As for `CC[C@H](C)[C@H](N)C(=O)N[C@@H](CCSC)C(=O)N[C@@H](Cc1ccccc1)C(=O)N[C@@H](C)C(=O)N[C@@H](CCCCN)C(=O)N[C@H](C(=O)N[C@@H](CC(C)C)C(=O)N[C@@H](CC(=O)O)C(=O)N[C@@H](Cc1ccccc1)C(=O)O)[C@@H](C)O` [3102.1190] (H-IMFAKTLDF-OH), the negative logarithm of the IC50 (pIC50) against HLA B*1503 is 9.51; against HLA A*3201 it was 8.17.

Take `CC[C@H](C)[C@H](NC(=O)[C@H](Cc1ccc(O)cc1)NC(=O)[C@H](Cc1c[nH]c2ccccc12)NC(=O)[C@H](CCSC)NC(=O)[C@@H](N)CO)C(=O)N1CCC[C@H]1C(=O)N[C@@H](CC(N)=O)C(=O)N[C@H](C(=O)N[C@@H](Cc1ccccc1)C(=O)O)C(C)C` [3102.1192] (H-SMWYIPNVF-OH): the pIC50 is 9.14 against HLA B*1503 and 8.29 at HLA A*3201.

For `CC[C@H](C)[C@H](N)C(=O)N[C@@H](CCSC)C(=O)N[C@@H](Cc1ccccc1)C(=O)N[C@@H](CO)C(=O)N[C@@H](CCCCN)C(=O)N[C@@H](CO)C(=O)N[C@@H](CC(C)C)C(=O)N[C@@H](CC(N)=O)C(=O)N[C@@H](Cc1ccccc1)C(=O)O` [3102.1204] (H-IMFSKSLNF-OH), the pIC50 on HLA B*1503 was 9.64; against HLA A*3201, 7.82.

With `CC(C)C[C@H](NC(=O)[C@@H](NC(=O)[C@H](CC(N)=O)NC(=O)[C@H](C)NC(=O)[C@H](CC(N)=O)NC(=O)[C@H](Cc1ccc(O)cc1)NC(=O)[C@H](Cc1ccccc1)NC(=O)[C@H](CCC(N)=O)NC(=O)[C@@H](N)CCCNC(=N)N)C(C)C)C(=O)O` [3102.1205] (H-RQFYNANVL-OH), the pIC50 is 9.62 against HLA B*1503 and 7.43 at HLA A*3201.

With `CC[C@H](C)[C@H](NC(=O)[C@@H](NC(=O)[C@@H]1CCCN1C(=O)[C@H](CC(C)C)NC(=O)[C@H](Cc1ccccc1)NC(=O)[C@H](CO)NC(=O)[C@H](CCSC)NC(=O)[C@@H](N)CCCCN)[C@@H](C)CC)C(=O)N[C@@H](Cc1ccccc1)C(=O)O` [3102.1291] (H-KMSFLPIIF-OH), the results for the pIC50 at HLA B*1503 and on HLA A*3201 were 10.10 and 8.17, respectively.

Take `CC[C@H](C)[C@H](N)C(=O)N[C@@H](CC(C)C)C(=O)N[C@@H](CCSC)C(=O)N[C@H](C(=O)N[C@@H](Cc1ccccc1)C(=O)N[C@H](C(=O)N[C@@H](CO)C(=O)N[C@@H](CO)C(=O)N[C@@H](Cc1ccccc1)C(=O)O)[C@@H](C)CC)[C@@H](C)CC` [3102.1302] (H-ILMIFISSF-OH): the pIC50 against HLA B*1503 is 7.92; at HLA A*3201, 7.06.

In the case of `CC[C@H](C)[C@H](N)C(=O)N[C@H](C(=O)N[C@@H](Cc1ccccc1)C(=O)N[C@@H](CCSC)C(=O)N[C@@H](CC(N)=O)C(=O)N[C@@H](CC(C)C)C(=O)N[C@@H](Cc1ccc(O)cc1)C(=O)N[C@@H](CO)C(=O)N[C@@H](Cc1ccccc1)C(=O)O)[C@@H](C)CC` [3102.1328] (H-IIFMNLYSF-OH), the negative-log IC50 (pIC50) on HLA B*1503 was 7.96; against HLA A*3201, 8.89.

`CSCC[C@H](NC(=O)[C@H](Cc1ccc(O)cc1)NC(=O)[C@H](CC(C)C)NC(=O)[C@@H](N)CC(C)C)C(=O)N[C@@H](Cc1ccccc1)C(=O)N1CCC[C@H]1C(=O)N[C@@H](CC(N)=O)C(=O)N[C@@H](CC(C)C)C(=O)N[C@@H](Cc1ccccc1)C(=O)O` [3102.1335] (H-LLYMFPNLF-OH): the values for the pIC50 on HLA B*1503 and at HLA A*3201 were 9.96 and 7.05, respectively.
